# According to patent US10538485B2, “Compounds for use as therapeutic agents affecting P53 expression and/or activity” (ABIVAX, priority 2011, dated 2020):
# Legend:
# Assay type in all cases: cell-based
# [1] = test system: MDA-MB231-luc-D3H2LN cells; assay: Invasion of MDA-MB231-D3H2LN cells into collagen; conditions: MDA-MB-231, anti-invasive effect in MDA-MB231 breast cancer cells, concentration giving 0.5 fold the effect of 10 μM Y-27632 ref. compound, read-out: 0.5 fold effect compared to 10 μM Y-27632
# From the text: 13.4 Effect of Drug Compounds on Invasion of MDA-MB231-D3H2LN Cells into Collagen
# A key step in the generation of tumor metastasis is the invasion of tumor cells into the extracellular matrix, a major component of which is collagen. Therefore, the invasion of tumor cells into collagen in vitro may be indicative of the generation of metastasis in vivo. E. g., MDA-MB231-luc-D3H2LN […] breast cancer cells display indeed both higher invasion into collagen in vitro and a higher metastatic potential in vivo as compared to MDA-MB231 cells (from which they were derived). Using these MDA-MB231-luc-D3H2LN cells as a model, the aim of the experiment described here is to identify drug compounds that inhibit the invasion of tumor cells into collagen in vitro, therefore potentially inhibiting also the generation of tumor metastasis in vivo.
# Step 1: Preparation of cells at the bottom of a collagen gel: Cells are suspended in a liquid collagen solution (4° C.), distributed into BSA-coated wells, and then collected at the bottom of the wells by centrifugation. The collagen is then solidified by incubation at 37° C. The BSA coating improves the adhesion of the collagen gel.
# Step 2: Pre-treatment with the compounds to be tested: Concentrated drug solutions are then added on top of the collagen, and cells are pre-incubated for 24 h with the drugs at low serum conditions (0.025% FBS).
# Step 3: Stimulation of invasion: Medium with 5% FBS is then added in order to stimulate invasion of the cells into the collagen gel.
# Step 4: Fixation and staining: Following another 24 h incubation, cells are fixed and nuclei are stained.
# Step 5: Analysis: Finally, plates are analyzed using an automated microscope. Fluorescent beads that have been included into the BSA coating serve to detect the bottom of the wells. Pictures of the stained nuclei are taken at the same level (0 μm) as well as 25 μm and 50 μm above.
# Invasion assay: Negative control: No drug (just DMSO at equivalent concentration). Positive control: 10 μM Y-27632. To avoid edge effects, only the 60 central wells B2-G11 are used; lines A and H as well as columns 1 and 12 remain free. Each drug is tested at least in triplicate. The positive and negative controls should be tested in double triplicates at different positions on each plate. Typical plate map (−=negative control, +=positive control, 1-16=16 different drug compounds):
# for each well, calculate the mean invasion distance of the counted cells: (25 μm×number of cells at 25 μm+50 μm×number cells at 50 μm)/sum of cells at 0, 25 and 50 μm
# for all four parameters (number of cells at 0 μm, number of cells at 25 μm, number of cells at 50 μm, mean invasion distance of the counted cells), calculate means, SD and CV of the replicates (n=6 for the controls; n=3 for the samples)
# invalidate any replicate with a CV≥50% (compound to be re-tested, or assay to be repeated if CV≥50% for the untreated negative control or the compound Y-27632-treated positive control). Y27632 is a selective inhibitor of the Rho-associated protein kinase p160ROCK of the following formula
# validate the assay only if the mean invasion distance of the cells treated with 10 μM Y-27632 (positive control) is decreased by ≥40% as compared to the untreated negative control
# Anti-invasive effect in MDA-MB231 breast cancer cells: 0.5 fold effect compared to 10 μM Y-27632 ref. compound.
# [2] = test system: p53 (mutant p53 (R280K) MDA-MB-231-Luc-D3H2N cells); assay: p53 mRNA level by RT-qPCR in MDA-MB-231-Luc-D3H2N cells; conditions: 5 μM, 48 hours
# Experimental: (§1) The compounds of the invention have been tested according to the following pharmacological test and the three compounds have been more particularly tested: (40), (1) and (45), all diluted in DMSO. Their effects were thus compared to cells treated with DMSO. A positive control was used, TG003, a benzothiazole compound known to alter splicing through the inhibition of Clk/Sty family activity (Sigma, ref: T5575).
# (§2) Two breast cancer cell lines have been treated with 5 μM of drugs for 48 hours: wild-type p53 MCF7 cells and mutant p53 (R280K) MDA-MB-231-Luc-D3H2N provided by Caliper Life Science (parental Line source: American Type Culture collection). The MDA-MB-231-Luc-D3H2N cells were maintained in two different media during treatment: a DMEM supplemented with 10% foetal calf serum (FCS) and a FCS-free medium for 24 hours followed by 24 hours in a complete medium. The MC7 cells were maintained in a DMEM/FCS 10% medium.
# (§3) Cells were harvested after 48 hours of treatment. Total RNAs (RNeasy Mini-Kit, Qiagen) and proteins (NuPage LDS 1×, Invitrogen) were extracted to analyse mRNA expression by nested RT-PCR or RT-qPCR and protein expression by Western Blot.
# (§4) Analysis of p53 expression was assessed both at mRNA (full-length and truncated, Δ133p53 isoforms) and protein (full-length) levels by RT-qPCR and Western Blot, respectively.
# (§5) The p53 isoform cDNA being too long to be specifically quantified by RT-qPCR, a semi-quantitative RT-PCR method was therefore used, requiring high quality total RNA 28S/18S ratio (>1.5). After reverse-transcription of 500 ng of total RNA using random primers, actin cDNA was amplified by PCR to confirm reverse-transcription efficiency. 0.5 μg of total RNA from each tumour sample was reverse-transcribed (AMV RT, 45 C, random primer) and cDNA quality confirmed by amplification of actin by PCR in 30 cycles. p53 isoform cDNA was amplified by 2 nested PCR of 30 cycles using primers specific of each isoforms as described in Bourdon et al. (Genes Dev., 2005, 19: 2122). Tumours were considered to express each p53 isoform after sequencing of the corresponding PCR fragment.
# [3] = test system: p53-target genes Hdm2, Bcl-2, p21 (mutant p53 MDA-MB-231-Luc-D3H2N cells); assay: p53 transcriptional activity: p53-target gene expression by Western-blot in MDA-MB-231-Luc-D3H2N cells; conditions: 5 μM, 48 hours
# Experimental: as §1, §2, §3
# Analysis of p53 transcriptional activity was assessed through analysis of p53-target gene expression by Western-blot. Four p53-target genes were studied: Hdm2, Bcl-2, p21 and Bax. Hdm2 is known to bind p53 and to negatively regulate p53 activity and stability. p21 is known to mediate p53 dependent cycle arrest. Bcl 2 is known to have an anti-proliferative effect and an apoptotic protective effect, while Bax is known to have a pro-apoptic effect. Bax was not detected in both MCF7 and MDA-MB-231-Luc-D3H2N cells, while p21 was not detected in MDA-MB-231-Luc-D3H2N cells maintained in FCS-free medium. The Western-blot was performed as above described using the antibodies described in Bourdon et al., Genes Dev., 2005, 19: 2122.
# [4] = test system: p53 (mutant p53 (R280K) MDA-MB-231-Luc-D3H2N cells); assay: p53 protein expression by Western Blot (4 antibodies) in MDA-MB-231-Luc-D3H2N cells; conditions: 5 μM, 48 hours
# Experimental: as §1, §2, §3
# p53 protein expression was determined using a panel of 4 different antibodies, namely DO1, SAPLI, CMI and DO12 as described in Bourdon et al. (Genes Dev., 2005, 19: 2122), to avoid problem of detection due to post-translational modification.
# The amount of total proteins in each extract was quantified using BCA kit (promega). 8% SDS-PAGE gels were used. Equal amount (30 μg) of proteins was loaded on each lane. Proteins were then transferred electrophoretically on nitrocellulose membrane. Membranes were blocked in TBS/0.1% Tween 20 containing 3% milk for one hour and then incubated overnight with the primary antibodies diluted in TBS/0.1% Tween 20 containing 3% milk. After several washes in TBS/Tween, membranes were incubated with anti-rabbit Ig antibodies linked to HRP. Membranes were developed with ECL according to the manufacturer's instructions.
# Scanned autoradiographs were quantified using AIDA/2D densitometry software.
# [5] = test system: p53 (wild-type p53 MCF7 cells); assay: p53 and Δ133p53 mRNA level by RT-qPCR in MCF7 cells; conditions: 5 μM, 48 hours, vs DMSO
# Experimental: as §1, §2, §3, §4, §5
# [6] = test system: p53 isoforms produced by alternative splicing (mutant p53 MDA-MB-231-Luc-D3H2N cells); assay: p53 isoforms (α, β, γ) expression at mRNA level in MDA-MB-231-Luc-D3H2N cells; conditions: 5 μM, 48 hours
# Experimental: as §2, §3
# (§6) Expression of p53 isoforms produced by alternative splicing (α, β and γ) was analysed at mRNA levels by RT-qPCR using primers/probe specific of each C-terminal variants. The α-forms are the most abundant forms. In the low abundant forms, β-forms are more expressed than γ-forms.
# as §5, with “A semi-quantitative” for “The p53 isoform cDNA being too long to be specifically quantified by RT-qPCR, a semi-quantitative”, “method” for “method was therefore used,”, “RT, 45C,” for “RT, 45 C,”, “described by” for “described in”
# [7] = test system: p53 isoforms produced by alternative splicing (wild-type p53 MCF7 cells); assay: p53 isoforms (α, β, γ) expression at mRNA level in MCF7 cells; conditions: 5 μM, 48 hours, RT-qPCR
# Experimental: as §2, §3, §6
# as §5, with “A semi-quantitative” for “The p53 isoform cDNA being too long to be specifically quantified by RT-qPCR, a semi-quantitative”, “method” for “method was therefore used,”, “RT, 45C,” for “RT, 45 C,”, “described by” for “described in”
# [8] = mutant p53 MDA-MB-231-Luc-D3H2N cells in FCS-free medium
# [9] = mutant p53 MDA-MB-231-Luc-D3H2N cells in normal medium
# [10] = mutant p53 MDA-MB-231-Luc-D3H2N cells in FCS-free medium, RT-qPCR
# [11] = mutant p53 MDA-MB-231-Luc-D3H2N cells in normal medium, RT-qPCR
smiles,measurement,setting,value
O=S(=O)(NCCN1CCCC1)c1cccc(Nc2cccc(/C=C/c3ccncc3)c2)c1 [Compound 25],IC (0.5-fold effect of 10 uM Y-27632),[1],0.5 ± 0.21 µM
"CN1CCN(CCCNC(=O)c2cccc(Nc3cccc(/C=C/c4ccncc4)c3)c2)CC1 [Compound 21, (E)-[3-(4-methyl-piperazinyl)-propyl]-3-[3-(2-pyridin-4-ylvinyl)-phenylamino]-benzamide]",IC (0.5-fold effect of 10 uM Y-27632),[1],0.17 ± 0.04 µM
O=S(=O)(NCCN1CCCCC1)c1cccc(Nc2cccc(/C=C/c3ccncc3)c2)c1 [Compound 24],IC (0.5-fold effect of 10 uM Y-27632),[1],0.64 ± 0.2 µM
CCN(CC)CCCNC(=O)c1ccccc1Nc1ccc(OCc2ccccc2)cc1 [Compound 50],IC (0.5-fold effect of 10 uM Y-27632),[1],1 µM
"NC(=O)c1cccc(Nc2cccc(/C=C/c3ccncc3)c2)c1 [Compound 9, 3-[3-(2-pyridin-4-ylvinyl)phenylamino]benzamide]",IC (0.5-fold effect of 10 uM Y-27632),[1],1.1 ± 0.4 µM
"CC(C)CCNC(=O)c1cccc(Nc2cccc(/C=C/c3ccncc3)c2)c1 [Compound 1, (E)-N-(3-methylbutyl)-3-[3-(2-pyridin-4-ylvinyl)phenylamino]benzamide]","p53 expression at mRNA levels (total isoforms, TA): decreased or not",[2]; [8],decreased
same,"p53 expression at mRNA levels (total isoforms, TA)",[2]; [9],significant decrease
same,expression of Hdm2 (p53-target gene),[3]; [8],slight decrease
same,p53-target genes expression,[3]; [9],did not affect
same,p53 protein levels (full-length),[4]; [8],did not change
same,p53 protein levels (full-length),[4]; [9],did not change
same,"total p53 expression (total isoforms, TA) at mRNA levels",[5],did not change
same,Δ133p53 mRNA level,[5],increased
same,expression of p53 γ-forms (mRNA),[6]; [10],no significant increase
same,p53 α-form expression at mRNA levels,[6]; [10],did not change
same,p53 γ-forms expression by nested RT-PCR,[6]; [8],restoration
same,expression of p53 β-forms (mRNA),[6]; [11],tend to increase
same,expression of p53 γ-forms (mRNA),[6]; [11],tend to increase
same,p53 α-form expression at mRNA levels,[6]; [11],did not change
same,p53 γ-forms expression by nested RT-PCR,[6]; [9],restoration
same,expression of p53 β-forms (mRNA),[7],tend to increase
same,expression of p53 γ-forms (mRNA),[7],tend to increase
same,p53 α-form expression at mRNA levels,[7],did not change
CCN(CC)CCCNC(=O)c1ccccc1Nc1cccc(/C=C/c2ccncc2)c1 [Compound 129],IC (0.5-fold effect of 10 uM Y-27632),[1],0.2 µM
O=S(=O)(NCCCN1CCOCC1)c1cccc(Nc2cccc(/C=C/c3ccncc3)c2)c1 [Compound 16],IC (0.5-fold effect of 10 uM Y-27632),[1],0.75 ± 0.19 µM
O=C(NCCCN1CCCCC1)c1cccc(Nc2cccc(/C=C/c3ccncc3)c2)c1 [Compound 19],IC (0.5-fold effect of 10 uM Y-27632),[1],0.25 ± 0.05 µM
O=S(=O)(NCCCN1CCCCC1)c1cccc(Nc2cccc(/C=C/c3ccncc3)c2)c1 [Compound 17],IC (0.5-fold effect of 10 uM Y-27632),[1],0.83 ± 0.09 µM
CCN(CC)CCCNC(=O)c1ccc(Nc2cccc(/C=C/c3ccncc3)c2)c(C)c1 [Compound 6],IC (0.5-fold effect of 10 uM Y-27632),[1],0.7 ± 0.1 µM
"CCN(CC)CCCNS(=O)(=O)c1cccc(Nc2cccc(/C=C/c3ccncc3)c2)c1 [Compound 18, N-(3-diethylaminopropyl)-3-[3-(2-pyridin-4-ylvinyl)phenylamino]benzenesulfonamide]",IC (0.5-fold effect of 10 uM Y-27632),[1],0.55 ± 0.05 µM
CCN(CC)CCCNC(=O)c1ccccc1Nc1cccc(OC(F)(F)F)c1 [Compound 49],IC (0.5-fold effect of 10 uM Y-27632),[1],0.13 ± 0.3 µM
O=C(NCCCN1CCCC1)c1cccc(Nc2cccc(/C=C/c3ccncc3)c2)c1 [Compound 22],IC (0.5-fold effect of 10 uM Y-27632),[1],0.3 ± 0.05 µM
